{"source": "patent US5284853A", "about": "“Angiotensin II receptor blocking 2,3,6 substituted quinazolinones” (American Cyanamid Company, priority 1993, dated 1994)", "system": "Angiotensin II (AII) vasopressor response", "experiment": "AII Challenge: antagonism of the angiotensin II vasopressor response in conscious SHR", "type": "in vivo, Spontaneously hypertensive rats (Male okamoto-Aoki SHR)", "conditions": "for Average Change / Inhibition: n = 2; for Change / Control Before AII / Response After AII: per rat", "key": {"[1]": {"conditions": "5 mg/kg I.V., AII 0.05 mcg/kg IV, 30 min post dose"}, "[2]": {"conditions": "5 mg/kg I.V., AII 0.05 mcg/kg IV, 60 min post dose"}, "[3]": {"conditions": "5 mg/kg I.V., AII 0.05 mcg/kg IV, 90 min post dose"}, "[4]": {"conditions": "5 mg/kg I.V., AII 0.05 mcg/kg IV, 120 min post dose"}, "[5]": {"conditions": "5 mg/kg I.V., AII 0.05 mcg/kg IV, 180 min post dose"}, "[6]": {"conditions": "5 mg/kg I.V., AII 0.1 mcg/kg IV, 30 min post dose"}, "[7]": {"conditions": "5 mg/kg I.V., AII 0.1 mcg/kg IV, 60 min post dose"}, "[8]": {"conditions": "5 mg/kg I.V., AII 0.1 mcg/kg IV, 90 min post dose"}, "[9]": {"conditions": "5 mg/kg I.V., AII 0.1 mcg/kg IV, 120 min post dose"}, "[10]": {"conditions": "5 mg/kg I.V., AII 0.1 mcg/kg IV, 180 min post dose"}, "[11]": {"conditions": "15 mg/kg I.V., AII 0.05 mcg/kg IV, 30 min post dose"}, "[12]": {"conditions": "15 mg/kg I.V., AII 0.05 mcg/kg IV, 60 min post dose"}, "[13]": {"conditions": "15 mg/kg I.V., AII 0.05 mcg/kg IV, 90 min post dose"}, "[14]": {"conditions": "15 mg/kg I.V., AII 0.05 mcg/kg IV, 120 min post dose"}, "[15]": {"conditions": "15 mg/kg I.V., AII 0.05 mcg/kg IV, 180 min post dose"}, "[16]": {"conditions": "15 mg/kg I.V., AII 0.1 mcg/kg IV, 30 min post dose"}, "[17]": {"conditions": "15 mg/kg I.V., AII 0.1 mcg/kg IV, 60 min post dose"}, "[18]": {"conditions": "15 mg/kg I.V., AII 0.1 mcg/kg IV, 90 min post dose"}, "[19]": {"conditions": "15 mg/kg I.V., AII 0.1 mcg/kg IV, 120 min post dose"}, "[20]": {"conditions": "15 mg/kg I.V., AII 0.1 mcg/kg IV, 180 min post dose"}}, "note": "Where “and” joins values, the source holds several entries; their conditions need not be identical. Equal values may be shown once."}
{"compound": "CCCCc1nc2ccc(C3CC(c4ccc(C)o4)=NO3)cc2c(=O)n1Cc1ccc(-c2ccccc2-c2nnn[nH]2)cc1", "note": "(stereo not shown) [Example 19]", "values": [{"measurement": "Average Change", "setting": "[1]", "result": 15.5, "unit": "mmhg"}, {"measurement": "Inhibition", "setting": "[1]", "result": 72, "unit": "%"}, {"measurement": "Change", "setting": "[1]", "result": "11 mmhg and 20 mmhg"}, {"measurement": "Control Before AII", "setting": "[1]", "result": "165 mmhg and 200 mmhg"}, {"measurement": "Response After AII", "setting": "[1]", "result": "176 mmhg and 180 mmhg"}, {"measurement": "Average Change", "setting": "[2]", "result": 15, "unit": "mmhg"}, {"measurement": "Inhibition", "setting": "[2]", "result": 73, "unit": "%"}, {"measurement": "Change", "setting": "[2]", "result": "20 mmhg and 10 mmhg"}, {"measurement": "Control Before AII", "setting": "[2]", "result": "160 mmhg and 195 mmhg"}, {"measurement": "Response After AII", "setting": "[2]", "result": "180 mmhg and 205 mmhg"}, {"measurement": "Average Change", "setting": "[3]", "result": 20, "unit": "mmhg"}, {"measurement": "Inhibition", "setting": "[3]", "result": 64, "unit": "%"}, {"measurement": "Change", "setting": "[3]", "result": "25 mmhg and 15 mmhg"}, {"measurement": "Control Before AII", "setting": "[3]", "result": "155 mmhg and 190 mmhg"}, {"measurement": "Response After AII", "setting": "[3]", "result": "180 mmhg and 205 mmhg"}, {"measurement": "Average Change", "setting": "[4]", "result": 25, "unit": "mmhg"}, {"measurement": "Inhibition", "setting": "[4]", "result": 55, "unit": "%"}, {"measurement": "Change", "setting": "[4]", "result": "35 mmhg and 15 mmhg"}, {"measurement": "Control Before AII", "setting": "[4]", "result": "150 mmhg and 175 mmhg"}, {"measurement": "Response After AII", "setting": "[4]", "result": "185 mmhg and 190 mmhg"}, {"measurement": "Average Change", "setting": "[5]", "result": 25, "unit": "mmhg"}, {"measurement": "Inhibition", "setting": "[5]", "result": 55, "unit": "%"}, {"measurement": "Change", "setting": "[5]", "result": "33 mmhg and 17 mmhg"}, {"measurement": "Control Before AII", "setting": "[5]", "result": "165 mmhg and 185 mmhg"}, {"measurement": "Response After AII", "setting": "[5]", "result": "198 mmhg and 202 mmhg"}, {"measurement": "Average Change", "setting": "[6]", "result": 17.5, "unit": "mmhg"}, {"measurement": "Inhibition", "setting": "[6]", "result": 83, "unit": "%"}, {"measurement": "Change", "setting": "[6]", "result": "20 mmhg and 15 mmhg"}, {"measurement": "Control Before AII", "setting": "[6]", "result": "160 mmhg and 205 mmhg"}, {"measurement": "Response After AII", "setting": "[6]", "result": "180 mmhg and 220 mmhg"}, {"measurement": "Average Change", "setting": "[7]", "result": 21, "unit": "mmhg"}, {"measurement": "Inhibition", "setting": "[7]", "result": 68, "unit": "%"}, {"measurement": "Change", "setting": "[7]", "result": "25 mmhg and 17 mmhg"}, {"measurement": "Control Before AII", "setting": "[7]", "result": "160 mmhg and 193 mmhg"}, {"measurement": "Response After AII", "setting": "[7]", "result": "185 mmhg and 210 mmhg"}, {"measurement": "Average Change", "setting": "[8]", "result": 24, "unit": "mmhg"}, {"measurement": "Inhibition", "setting": "[8]", "result": 63, "unit": "%"}, {"measurement": "Change", "setting": "[8]", "result": "25 mmhg and 23 mmhg"}, {"measurement": "Control Before AII", "setting": "[8]", "result": "175 mmhg and 187 mmhg"}, {"measurement": "Response After AII", "setting": "[8]", "result": "200 mmhg and 210 mmhg"}, {"measurement": "Average Change", "setting": "[9]", "result": 22.5, "unit": "mmhg"}, {"measurement": "Inhibition", "setting": "[9]", "result": 65, "unit": "%"}, {"measurement": "Change", "setting": "[9]", "result": "20 mmhg and 25 mmhg"}, {"measurement": "Control Before AII", "setting": "[9]", "result": "165 mmhg and 175 mmhg"}, {"measurement": "Response After AII", "setting": "[9]", "result": "185 mmhg and 200 mmhg"}, {"measurement": "Average Change", "setting": "[10]", "result": 27.5, "unit": "mmhg"}, {"measurement": "Inhibition", "setting": "[10]", "result": 58, "unit": "%"}, {"measurement": "Change", "setting": "[10]", "result": "25 mmhg and 30 mmhg"}, {"measurement": "Control Before AII", "setting": "[10]", "result": "170 mmhg and 185 mmhg"}, {"measurement": "Response After AII", "setting": "[10]", "result": "195 mmhg and 215 mmhg"}, {"measurement": "Average Change", "setting": "[11]", "result": 5, "unit": "mmhg"}, {"measurement": "Inhibition", "setting": "[11]", "result": 83, "unit": "%"}, {"measurement": "Change", "setting": "[11]", "result": "0 mmhg and 10 mmhg"}, {"measurement": "Control Before AII", "setting": "[11]", "result": "165 mmhg and 150 mmhg"}, {"measurement": "Response After AII", "setting": "[11]", "result": "165 mmhg and 160 mmhg"}, {"measurement": "Average Change", "setting": "[12]", "result": 10, "unit": "mmhg"}, {"measurement": "Inhibition", "setting": "[12]", "result": 67, "unit": "%"}, {"measurement": "Change", "setting": "[12]", "result": 10, "unit": "mmhg"}, {"measurement": "Control Before AII", "setting": "[12]", "result": "155 mmhg and 150 mmhg"}, {"measurement": "Response After AII", "setting": "[12]", "result": "165 mmhg and 160 mmhg"}, {"measurement": "Average Change", "setting": "[13]", "result": 5, "unit": "mmhg"}, {"measurement": "Inhibition", "setting": "[13]", "result": 83, "unit": "%"}, {"measurement": "Change", "setting": "[13]", "result": 5, "unit": "mmhg"}, {"measurement": "Control Before AII", "setting": "[13]", "result": "155 mmhg and 150 mmhg"}, {"measurement": "Response After AII", "setting": "[13]", "result": "160 mmhg and 155 mmhg"}, {"measurement": "Average Change", "setting": "[14]", "result": 7.5, "unit": "mmhg"}, {"measurement": "Inhibition", "setting": "[14]", "result": 75, "unit": "%"}, {"measurement": "Change", "setting": "[14]", "result": "5 mmhg and 10 mmhg"}, {"measurement": "Control Before AII", "setting": "[14]", "result": 150, "unit": "mmhg"}, {"measurement": "Response After AII", "setting": "[14]", "result": "155 mmhg and 160 mmhg"}, {"measurement": "Average Change", "setting": "[15]", "result": 7.5, "unit": "mmhg"}, {"measurement": "Inhibition", "setting": "[15]", "result": 75, "unit": "%"}, {"measurement": "Change", "setting": "[15]", "result": "0 mmhg and 15 mmhg"}, {"measurement": "Control Before AII", "setting": "[15]", "result": "160 mmhg and 140 mmhg"}, {"measurement": "Response After AII", "setting": "[15]", "result": "160 mmhg and 155 mmhg"}, {"measurement": "Average Change", "setting": "[16]", "result": 5, "unit": "mmhg"}, {"measurement": "Inhibition", "setting": "[16]", "result": 89, "unit": "%"}, {"measurement": "Change", "setting": "[16]", "result": "0 mmhg and 10 mmhg"}, {"measurement": "Control Before AII", "setting": "[16]", "result": "165 mmhg and 160 mmhg"}, {"measurement": "Response After AII", "setting": "[16]", "result": "165 mmhg and 170 mmhg"}, {"measurement": "Average Change", "setting": "[17]", "result": 5, "unit": "mmhg"}, {"measurement": "Inhibition", "setting": "[17]", "result": 89, "unit": "%"}, {"measurement": "Change", "setting": "[17]", "result": "0 mmhg and 10 mmhg"}, {"measurement": "Control Before AII", "setting": "[17]", "result": "165 mmhg and 160 mmhg"}, {"measurement": "Response After AII", "setting": "[17]", "result": "165 mmhg and 170 mmhg"}, {"measurement": "Average Change", "setting": "[18]", "result": 7.5, "unit": "mmhg"}, {"measurement": "Inhibition", "setting": "[18]", "result": 83, "unit": "%"}, {"measurement": "Change", "setting": "[18]", "result": "10 mmhg and 5 mmhg"}, {"measurement": "Control Before AII", "setting": "[18]", "result": "155 mmhg and 150 mmhg"}, {"measurement": "Response After AII", "setting": "[18]", "result": "165 mmhg and 155 mmhg"}, {"measurement": "Average Change", "setting": "[19]", "result": 7.5, "unit": "mmhg"}, {"measurement": "Inhibition", "setting": "[19]", "result": 83, "unit": "%"}, {"measurement": "Change", "setting": "[19]", "result": "10 mmhg and 5 mmhg"}, {"measurement": "Control Before AII", "setting": "[19]", "result": 155, "unit": "mmhg"}, {"measurement": "Response After AII", "setting": "[19]", "result": "165 mmhg and 160 mmhg"}, {"measurement": "Average Change", "setting": "[20]", "result": 10, "unit": "mmhg"}, {"measurement": "Inhibition", "setting": "[20]", "result": 78, "unit": "%"}, {"measurement": "Change", "setting": "[20]", "result": "0 mmhg and 20 mmhg"}, {"measurement": "Control Before AII", "setting": "[20]", "result": "170 mmhg and 150 mmhg"}, {"measurement": "Response After AII", "setting": "[20]", "result": 170, "unit": "mmhg"}]}
